Tests used:
[1] = tested on: RAW 264.7 mouse macrophages induced with LPS; test: Cytokine mRNA expression in LPS-induced RAW 264.7 macrophages; format: cell-based; settings: 10 and 1 μM, 48 h, preliminary data
EAE mice = test: Mechanical withdrawal thresholds; format: in vivo, mouse (C57BL/6, female); settings: day 24 post-EAE induction; compound 5 and modafinil 10 mg/kg, Solu-Medrol 50 mg/kg p.o. days 1–10

NC(=O)C[S+]([O-])C(c1ccccc1)c1ccccc1 (racemic) [(±)-modafinil]
mRNA expression levels of TNF-α, IL-1β and IL-4Rα [1]: minimal ability to modulate
Mechanical withdrawal threshold, front left paw (von Frey) (EAE mice): decreased reflex thresholds

Reference: article PMC9365315 (ACS chemical neuroscience, 2022)
